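Interpolation was linear, between the two tested concentrations surrounding the appropriate level; five concentrations were tested over 48 hours in 96-well plates. TGI denotes the concentration required for complete inhibition of growth.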
Experiments:
Assay in all cases: NCI tumour cell line growth inhibition, 48 h
SR leukemia = tested on: SR leukemia
HCT-116 colon = tested on: HCT-116 colon
A498 renal = tested on: A498 renal
SK-MEL-2 melanoma = tested on: SK-MEL-2 melanoma
NCI-H23 lung = tested on: NCI-H23 lung
SNB-19 CNS = tested on: SNB-19 CNS
TK-10 renal = tested on: TK-10 renal
T-47D breast = tested on: T-47D breast
UO-31 renal = tested on: UO-31 renal
SK-OV-3 ovarian = tested on: SK-OV-3 ovarian
DU-145 prostate = tested on: DU-145 prostate
SK-MEL-28 melanoma = tested on: SK-MEL-28 melanoma
NCI-H226 lung = tested on: NCI-H226 lung
UACC-257 melanoma = tested on: UACC-257 melanoma
HT29 colon = tested on: HT29 colon
OVCAR-4 ovarian = tested on: OVCAR-4 ovarian
UACC-62 melanoma = tested on: UACC-62 melanoma
MOLT-4 leukemia = tested on: MOLT-4 leukemia
U251 CNS = tested on: U251 CNS
CCRF-CEM leukemia = tested on: CCRF-CEM leukemia
EKVX NSCLC = tested on: EKVX NSCLC
MDA-MB-231 breast = tested on: MDA-MB-231 breast
RXF 393 renal = tested on: RXF 393 renal
SNB-75 CNS = tested on: SNB-75 CNS
HL-60(TB) leukemia = tested on: HL-60(TB) leukemia
M14 melanoma = tested on: M14 melanoma
OVCAR-3 ovarian = tested on: OVCAR-3 ovarian
A549 NSCLC = tested on: A549 NSCLC
HCC-2998 colon = tested on: HCC-2998 colon
MDA-MB-435 = tested on: MDA-MB-435
NCI-H522 lung = tested on: NCI-H522 lung
CAKI-1 renal = tested on: CAKI-1 renal
HOP-92 NSCLC = tested on: HOP-92 NSCLC
COLO 205 colon = tested on: COLO 205 colon
NCI/ADR-RES ovarian = tested on: NCI/ADR-RES ovarian
LOX IMVI melanoma = tested on: LOX IMVI melanoma
HS 578T breast = tested on: HS 578T breast
SK-MEL-5 melanoma = tested on: SK-MEL-5 melanoma
SW-620 colon = tested on: SW-620 colon
BT-549 breast = tested on: BT-549 breast
IGROV1 ovarian = tested on: IGROV1 ovarian
SF-295 CNS = tested on: SF-295 CNS
OVCAR-5 ovarian = tested on: OVCAR-5 ovarian
KM12 colon = tested on: KM12 colon
K-562 leukemia = tested on: K-562 leukemia
786-0 renal = tested on: 786-0 renal
MALME-3M melanoma = tested on: MALME-3M melanoma
HCT-15 colon = tested on: HCT-15 colon
HOP-62 NSCLC = tested on: HOP-62 NSCLC
RPMI-8226 leukemia = tested on: RPMI-8226 leukemia
OVCAR-8 ovarian = tested on: OVCAR-8 ovarian
SF-268 CNS = tested on: SF-268 CNS
NCI-H460 lung = tested on: NCI-H460 lung
ACHN renal = tested on: ACHN renal
PC-3 prostate = tested on: PC-3 prostate

SMILES: Cc1ccc(S(=O)C[C@](NC(=O)OCc2ccccc2)(Sc2ccccc2)C(F)F)cc1 (stereo not given in full)
- TGI (SR leukemia): 30.7 µM
- TGI (HCT-116 colon): 34.8 µM
- TGI (A498 renal): 29.7 µM
- TGI (SK-MEL-2 melanoma): 71.6 µM
- TGI (NCI-H23 lung): 36.4 µM
- TGI (SNB-19 CNS): 31.3 µM
- TGI (TK-10 renal): 42.6 µM
- TGI (T-47D breast): 40 µM
- TGI (UO-31 renal): 22.3 µM
- TGI (SK-OV-3 ovarian): 36 µM
- TGI (DU-145 prostate): 45.6 µM
- TGI (SK-MEL-28 melanoma): 38.1 µM
- TGI (NCI-H226 lung): 32.4 µM
- TGI (UACC-257 melanoma): 31.5 µM
- TGI (HT29 colon): 31.1 µM
- TGI (OVCAR-4 ovarian): 41.4 µM
- TGI (UACC-62 melanoma): 29.9 µM
- TGI (MOLT-4 leukemia): 22.2 µM
- TGI (U251 CNS): 35.5 µM
- TGI (CCRF-CEM leukemia): 5.56 µM
- TGI (EKVX NSCLC): 29.3 µM
- TGI (MDA-MB-231 breast): 52.4 µM
- TGI (RXF 393 renal): 79.5 µM
- TGI (SNB-75 CNS): 28.3 µM
- TGI (HL-60(TB) leukemia): 24.9 µM
- TGI (M14 melanoma): > 100 µM
- TGI (OVCAR-3 ovarian): 66.1 µM
- TGI (A549 NSCLC): > 100 µM
- TGI (HCC-2998 colon): 35.9 µM
- TGI (MDA-MB-435): 79.6 µM
- TGI (NCI-H522 lung): 22.4 µM
- TGI (CAKI-1 renal): 50.4 µM
- TGI (HOP-92 NSCLC): 42.9 µM
- TGI (COLO 205 colon): 35.9 µM
- TGI (NCI/ADR-RES ovarian): 54.6 µM
- TGI (LOX IMVI melanoma): 19.4 µM
- TGI (HS 578T breast): 94.3 µM
- TGI (SK-MEL-5 melanoma): 28 µM
- TGI (SW-620 colon): 40.6 µM
- TGI (BT-549 breast): 50.9 µM
- TGI (IGROV1 ovarian): 22.7 µM
- TGI (SF-295 CNS): 34.4 µM
- TGI (OVCAR-5 ovarian): 63.9 µM
- TGI (KM12 colon): 31.9 µM
- TGI (K-562 leukemia): > 100 µM
- TGI (786-0 renal): 29.2 µM
- TGI (MALME-3M melanoma): 47.6 µM
- TGI (HCT-15 colon): 40.3 µM
- TGI (HOP-62 NSCLC): 86.9 µM
- TGI (RPMI-8226 leukemia): 45 µM
- TGI (OVCAR-8 ovarian): 48.5 µM
- TGI (SF-268 CNS): 63.4 µM
- TGI (NCI-H460 lung): 42.2 µM
- TGI (ACHN renal): 45.5 µM
- TGI (PC-3 prostate): 74.2 µM

From PubChem BioAssay (NCI)
